Data on 19 compounds can be found in patent US8889704B2 (Array BioPharma Inc., priority 2011, dated 2014).

Holding throughout (assay type): biochemical
The target of assay [1] is T1, GST-tagged recombinant full-length human Pim-2 (Homo sapiens, UniProt Q9P1W9).
T1 construct: GST-tagged recombinant full-length human Pim-2; GST
Description: PIM-2 Assay (as Example A). To be noted: averaged IC50; 4 μM ATP, 1.0 μM PIM2tide, 1.5 nM Pim-2. The method, boiled down: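 Radiometric filter-binding assay: GST-tagged full-length human Pim-2 (1.5 nM) phosphorylates 1.0 μM PIM2tide with 4 μM [γ-33P]ATP for 60 min at 22 °C in pH 7.4 MOPS buffer, 2% DMSO. 10-point 3-fold dilutions from 10 μM top dose; IC50 from 4-parameter fit of percent of control.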

The next assay addresses PIM-1 (Homo sapiens, UniProt P11309). Nature of the assay: Enzyme PIM-1 Assay ([33P]ATP incorporation into PIM2tide, filter plate). As to conditions: averaged IC50; 35 μM ATP, 7.5 μM PIM2tide, 0.25 nM PIM-1, 60 min at 22° C. In outline:
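Radiometric assay: 0.25 nM PIM-1 phosphorylates 7.5 μM PIM2tide with 35 μM [γ-33P]ATP in 20 mM MOPS pH 7.4, 10 mM MgCl2, 1 mM DTT, 0.005% Tween-20, 60 min at 22 °C. Product captured on P81 filters, scintillation counted; 10-point 3-fold curve from 10 μM top, 2% DMSO, IC50 by 4-parameter logistic fit of POC.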

The next assay addresses recombinant rat PIM-3 (Rattus norvegicus, UniProt O70444). Description: PIM-3 Assay (as Example A). To be noted: averaged IC50; 30 μM ATP, 3.75 μM PIM2tide, 0.5 nM PIM-3. In outline:
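Recombinant rat PIM-3 (0.5 nM) with 3.75 μM PIM2tide and 30 μM [γ-33P]ATP in MOPS pH 7.4 buffer, 60 min at 22 °C; labelled peptide captured on phosphocellulose filters and counted by scintillation. 10-point curve (top dose 10 μM, 2% DMSO); IC50 from 4-parameter fit of percent of control.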

Where a name gives a salt, the structure may show the parent alone.

As a reminder, the IC50 is the concentration needed to halve the response being measured.

T1 sequence (Q9P1W9 whole entry): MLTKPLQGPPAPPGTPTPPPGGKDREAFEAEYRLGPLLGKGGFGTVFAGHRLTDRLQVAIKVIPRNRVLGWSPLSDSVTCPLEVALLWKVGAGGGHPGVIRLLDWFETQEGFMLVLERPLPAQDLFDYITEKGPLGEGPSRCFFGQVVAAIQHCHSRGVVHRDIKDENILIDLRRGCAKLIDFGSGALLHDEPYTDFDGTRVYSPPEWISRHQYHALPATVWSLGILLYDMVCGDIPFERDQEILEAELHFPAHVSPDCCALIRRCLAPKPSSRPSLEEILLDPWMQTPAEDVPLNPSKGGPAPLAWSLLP
PIM-1, sequence (P11309 whole entry, species assumed): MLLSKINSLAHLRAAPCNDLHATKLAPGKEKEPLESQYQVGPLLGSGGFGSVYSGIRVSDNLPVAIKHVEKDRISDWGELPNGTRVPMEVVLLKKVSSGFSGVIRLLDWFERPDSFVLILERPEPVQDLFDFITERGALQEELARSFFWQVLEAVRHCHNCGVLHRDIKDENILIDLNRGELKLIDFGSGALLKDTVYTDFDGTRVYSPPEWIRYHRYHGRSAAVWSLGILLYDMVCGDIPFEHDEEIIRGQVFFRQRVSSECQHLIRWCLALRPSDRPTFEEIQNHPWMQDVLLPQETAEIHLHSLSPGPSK

Regarding `CC(C)(C)c1cccc2ccc(-c3nnc4ccc([C@@H](N5CC[C@H](N)C5)C(F)(F)F)cn34)nc12` [Example 45, (S)-1-((R)-1-(3-(8-tert-butylquinolin-2-yl)-[1,2,4]triazolo[4,3-a]pyridin-6-yl)-2,2,2-trifluoroethyl)pyrrolidin-3-amine dihydrochloride], the half-inhibitory concentration (IC50) was found to be 29 nM in assay [1], 0.21 nM against PIM-1 and 0.5 nM at recombinant rat PIM-3.
On the same counts, the results for `CC(C)(C)NC(=O)c1ccc2ccc(-c3nnc4ccc([C@@H](N5CC[C@H](N)C5)C(F)(F)F)cn34)nc2c1` [Example 46, 2-(6-((R)-1-((S)-3-aminopyrrolidin-1-yl)-2,2,2-trifluoroethyl)-[1,2,4]triazolo[4,3-a]pyridin-3-yl)-N-tert-butylquinoline-7-carboxamide dihydrochloride] are 33 nM, 0.07 nM and 0.3 nM.
Regarding `N[C@@H]1CCN([C@H](c2ccc3nnc(-c4ccc5cccc(C6CC6)c5n4)n3c2)C(F)(F)F)C1` [Example 47, (R)-1-((R)-1-(3-(8-cyclopropylquinolin-2-yl)-[1,2,4]triazolo[4,3-a]pyridin-6-yl)-2,2,2-trifluoroethyl)pyrrolidin-3-amine dihydrochloride], the results for the half-maximal inhibitory concentration (IC50) (in assay [1]; against PIM-1; at recombinant rat PIM-3) were 51 nM, 0.09 nM and 3.8 nM, respectively.
For `CC(C)NC(=O)c1ccc2ccc(-c3nnc4ccc([C@H](N5CC[C@H](N)C5)C(F)(F)F)cn34)nc2c1` [Example 48, 2-(6-((S)-1-((S)-3-aminopyrrolidin-1-yl)-2,2,2-trifluoroethyl)-[1,2,4]triazolo[4,3-a]pyridin-3-yl)-N-isopropylquinoline-7-carboxamide dihydrochloride], in that order: more than 100 nM, 1.41 nM and 1.9 nM.
On the same counts, the results for `CC(C)NC(=O)c1ccc2ccc(-c3nnc4ccc([C@@H](N5CC[C@@H](N)C5)C(F)(F)F)cn34)nc2c1` [Example 49, 2-(6-((R)-1-((R)-3-aminopyrrolidin-1-yl)-2,2,2-trifluoroethyl)-[1,2,4]triazolo[4,3-a]pyridin-3-yl)-N-isopropylquinoline-7-carboxamide dihydrochloride] are 68 nM, 0.22 nM and 0.4 nM.
For the compound `CC(=O)N[C@H]1CCN(C(c2ccc3nnc(-c4ccc5cccc(OCC6CC6)c5n4)n3c2)C(F)(F)F)C1` (stereo partly drawn) [Example 50, N-((3S)-1-(1-(3-(8-(cyclopropylmethoxy)quinolin-2-yl)-[1,2,4]triazolo[4,3-a]pyridin-6-yl)-2,2,2-trifluoroethyl)pyrrolidin-3-yl)acetamide], the IC50 in assay [1] is more than 100 nM; on PIM-1, 4.88 nM; on recombinant rat PIM-3, 41 nM.
For `N[C@H]1CCN([C@@H](c2ccc3nnc(-c4ccc5cccc(C6CC6)c5n4)n3c2)C(F)(F)F)C1` [Example 51, (S)-1-((S)-1-(3-(8-cyclopropylquinolin-2-yl)-[1,2,4]triazolo[4,3-a]pyridin-6-yl)-2,2,2-trifluoroethyl)pyrrolidin-3-amine dihydrochloride], in that order: 11 nM, 0.1 nM and 1.1 nM.
For `CC(C)NC(=O)c1ccc2ccc(-c3nnc4ccc([C@H](N5CC[C@@H](N)C5)C(F)(F)F)cn34)nc2c1` [Example 52, 2-(6-((S)-1-((R)-3-aminopyrrolidin-1-yl)-2,2,2-trifluoroethyl)-[1,2,4]triazolo[4,3-a]pyridin-3-yl)-N-isopropylquinoline-7-carboxamide], in that order: more than 100 nM, 1.39 nM and 2 nM.
On the same counts, the results for `CC1(NC(=O)c2ccc3ccc(-c4nnc5ccc([C@@H](N6CC[C@H](N)C6)C(F)(F)F)cn45)nc3c2)CC1` [Example 53, 2-(6-((R)-1-((S)-3-aminopyrrolidin-1-yl)-2,2,2-trifluoroethyl)-[1,2,4]triazolo[4,3-a]pyridin-3-yl)-N-(1-methylcyclopropyl)quinoline-7-carboxamide dihydrochloride] are 27 nM, 0.24 nM and 0.3 nM.
As for `CC(C)(C)NC(=O)c1ccc2ccc(-c3nnc4ccc([C@@H](N5CC[C@@H](N)C5)C(F)(F)F)cn34)nc2c1` [Example 54, 2-(6-((R)-1-((R)-3-aminopyrrolidin-1-yl)-2,2,2-trifluoroethyl)-[1,2,4]triazolo[4,3-a]pyridin-3-yl)-N-tert-butylquinoline-7-carboxamide dihydrochloride], the IC50 in assay [1] stood at 67 nM; against PIM-1, 0.41 nM; on recombinant rat PIM-3, 0.6 nM.
Turning to `CC1(NC(=O)c2ccc3ccc(-c4nnc5ccc([C@@H](N6CC[C@@H](N)C6)C(F)(F)F)cn45)nc3c2)CC1` [Example 55, 2-(6-((R)-1-((R)-3-aminopyrrolidin-1-yl)-2,2,2-trifluoroethyl)-[1,2,4]triazolo[4,3-a]pyridin-3-yl)-N-(1-methylcyclopropyl)quinoline-7-carboxamide dihydrochloride], the IC50 was 35 nM in assay [1], 0.25 nM on PIM-1 and 0.3 nM on recombinant rat PIM-3.
On the same counts, the results for `N[C@@H]1CCN([C@@H](c2ccc3nnc(-c4ccc5cccc(C6CC6)c5n4)n3c2)C(F)(F)F)C1` [Example 56, (R)-1-((S)-1-(3-(8-cyclopropylquinolin-2-yl)-[1,2,4]triazolo[4,3-a]pyridin-6-yl)-2,2,2-trifluoroethyl)pyrrolidin-3-amine] are 16 nM, 0.14 nM and 2.4 nM.
For `CN[C@H]1CCN([C@H](c2ccc3nnc(-c4ccc5ccc(C(=O)NC(C)C)cc5n4)n3c2)C(F)(F)F)C1` [Example 57, N-isopropyl-2-(6-((R)-2,2,2-trifluoro-1-((S)-3-(methylamino)pyrrolidin-1-yl)ethyl)-[1,2,4]triazolo[4,3-a]pyridin-3-yl)quinoline-7-carboxamide], in that order: more than 100 nM, 0.45 nM and 0.9 nM.
As to `CN[C@H]1CCN([C@H](c2ccc3nnc(-c4ccc5ccc(C(=O)NC(C)(C)C)cc5n4)n3c2)C(F)(F)F)C1` [Example 58, N,N-tert-butyl-2-(6-((R)-2,2,2-trifluoro-1-((S)-3-(methylamino)pyrrolidin-1-yl)ethyl)-[1,2,4]triazolo[4,3-a]pyridin-3-yl)quinoline-7-carboxamide], the figures for the IC50 (in assay [1]; against PIM-1; on recombinant rat PIM-3) were more than 100 nM, 0.6 nM and 0.7 nM, respectively.
On the same counts, the results for `CCC(C)(C)NC(=O)c1ccc2ccc(-c3nnc4ccc([C@@H](N5CC[C@@H](N)C5)C(F)(F)F)cn34)nc2c1` [Example 59, 2-(6-((R)-1-((R)-3-aminopyrrolidin-1-yl)-2,2,2-trifluoroethyl)-[1,2,4]triazolo[4,3-a]pyridin-3-yl)-N-tert-pentylquinoline-7-carboxamide dihydrochloride] are more than 100 nM, 0.56 nM and 0.8 nM.
For `N[C@H]1CCN([C@H](c2ccc3nnc(-c4ccc5ccc(F)c(C6CC6)c5n4)n3c2)C(F)(F)F)C1` [Example 60, (S)-1-((R)-1-(3-(8-cyclopropyl-7-fluoroquinolin-2-yl)-[1,2,4]triazolo[4,3-a]pyridin-6-yl)-2,2,2-trifluoroethyl)pyrrolidin-3-amine dihydrochloride], in that order: 77 nM, 0.19 nM and 4 nM.
On the same counts, the results for `N[C@@H]1CCN([C@H](c2ccc3nnc(-c4ccc5ccc(C6CC6)cc5n4)n3c2)C(F)(F)F)C1` [Example 61, (R)-1-((R)-1-(3-(7-cyclopropylquinolin-2-yl)-[1,2,4]triazolo[4,3-a]pyridin-6-yl)-2,2,2-trifluoroethyl)pyrrolidin-3-amine dihydrochloride] are more than 100 nM, 0.59 nM and 3.7 nM.
On to `CC(C)(C)c1cccc2ccc(-c3nnc4ccc([C@@H](N5C[C@@H]6C[C@H]5CN6)C(F)(F)F)cn34)nc12` [Example 62, 2-(6-((R)-1-((1S,4S)-2,5-diazabicyclo[2.2.1]heptan-2-yl)-2,2,2-trifluoroethyl)-[1,2,4]triazolo[4,3-a]pyridin-3-yl)-8-tert-butylquinoline], for which the IC50 in assay [1] turned out to be 2.9 nM; on PIM-1 it was 0.71 nM; at recombinant rat PIM-3 it was 1.4 nM.
For `Fc1ccc2ccc(-c3nnc4ccc([C@@H](N5C[C@@H]6C[C@H]5CN6)C(F)(F)F)cn34)nc2c1` [Example 63, 2-(6-((R)-1-((1S,4S)-2,5-diazabicyclo[2.2.1]heptan-2-yl)-2,2,2-trifluoroethyl)-[1,2,4]triazolo[4,3-a]pyridin-3-yl)-7-fluoro quinoline dihydrochloride], in that order: more than 100 nM, 11.7 nM and 25 nM.
